In assay [1] the target is T1, Macrophage migration inhibitory factor (Homo sapiens, UniProt P14174).
T1 sequence (P14174 whole entry): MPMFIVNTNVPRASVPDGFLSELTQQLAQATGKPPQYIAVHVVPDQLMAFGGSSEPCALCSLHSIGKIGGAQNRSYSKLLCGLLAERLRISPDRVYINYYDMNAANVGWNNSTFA
In words: Inhibition of macrophage migration inhibitory factor tautomerase activity in human Jurkat T cells using L-dopachrome methyl ester as substrate incubated for 30 mins prior to substrate addition measured for 2 mins by spectrophotometric analysis. It counts as cell-based.

In assay [2] the target is T1, Macrophage migration inhibitory factor. In words: Inhibition of human recombinant macrophage migration inhibitory factor tautomerase activity expressed in Escherichia coli DH5alpha using L-dopachrome methyl ester as substrate incubated for 5 mins prior to substrate addition measured for 2 mins by spectrophotometric analysis.
For assay [3] the target is unchanged. In words: Inhibition of human recombinant macrophage migration inhibitory factor tautomerase activity expressed in Escherichia coli DH5alpha using L-dopachrome methyl ester as substrate incubated for 5 mins prior to substrate addition measured 24 months post determination of initial value by spectrophotometric analysis.
Assay [4] shares this target. As to the kind of experiment: Inhibition of macrophage migration inhibitory factor tautomerase activity in human Jurkat T cells using L-dopachrome methyl ester as substrate incubated for 30 mins prior to substrate addition measured 24 months post determination of initial value by spectrophotometric analysis. It counts as cell-based.

Each structure is given as a SMILES string.

As usually defined, the IC50 is the concentration that inhibits the measured activity by half. In turn, `C[C@@H](N=C=S)c1ccccc1` gave an IC50 in assay [1] of 1.1 µM.

On to `Oc1ccc(CCN=C=S)cc1`, for which the half-inhibitory concentration (IC50) worked out at 3.6 µM in assay [2] and 1.2 µM in assay [1].

As to `Oc1cccc(CCN=C=S)c1`, the IC50 in assay [2] stood at 62 µM; in assay [1] it was 7.8 µM.

In the case of `Oc1ccc(CCN=C=S)cc1O`, the half-inhibitory concentration (IC50) in assay [2] came out at 29 µM; in assay [1], 4 µM.

In the case of `FC(F)(F)c1ccc(CCN=C=S)cc1`, the IC50 in assay [2] was found to be 40 µM; in assay [1] it was 7.1 µM.

For the molecule `FC(F)(F)c1cccc(CCN=C=S)c1`, in assay [1], the IC50 turned out to be 10.4 µM.

On to `S=C=NCCc1ccc(Cl)cc1`, for which the figures for the IC50 in assay [2] and in assay [1] were 1.1 µM and 1.6 µM, respectively.

`CC(CN=C=S)c1ccc(O)cc1` (stereo unspecified): the figures for the IC50 in assay [2] and in assay [1] were 28 µM and 4.8 µM, respectively.

For `Oc1ccc(C(N=C=S)c2ccc(O)cc2)cc1`, the IC50 in assay [1] is greater than 100 µM.

Consider `Fc1ccc(CN=C=S)cc1`, for which the results for the IC50 in assay [1], in assay [3] and in assay [4] were 0.54 µM, 31 µM and 9.6 µM, respectively.

Consider `Fc1cccc(CN=C=S)c1`, for which the IC50 in assay [1] came to 1.5 µM; in assay [3], 54 µM; in assay [4], 11 µM.

`FC(F)(F)c1cccc(CN=C=S)c1` came in with an IC50 in assay [1] of 5.9 µM.

`NS(=O)(=O)c1ccc(CN=C=S)cc1`: the IC50 in assay [2] came to 0.75 µM; in assay [1] it was 0.5 µM.

As for `S=C=NCc1ccc2c(c1)OCO2`, the IC50 is 2.9 µM in assay [2] and 5 µM in assay [1].

Take `CCC(N=C=S)c1ccccc1` (stereo unspecified): the IC50 in assay [1] was found to be 21 µM.

Turning to `CCC(N=C=S)c1ccc(O)cc1` (stereo unspecified), the IC50 in assay [1] was greater than 100 µM.

Turning to `CCC(N=C=S)c1ccc(OC)cc1` (stereo unspecified), the IC50 in assay [1] is 1.2 µM.

`S=C=NC(c1ccccc1)c1ccccc1` displayed a concentration for half-maximal inhibition (IC50) in assay [1] greater than 100 µM.

The molecule `COc1ccccc1OCCN=C=S` registered an IC50 in assay [1] of 1.8 µM.

In assay [1], `S=C=NCCCc1ccccc1` had an IC50 of 1.4 µM.

As for `OCCCCCCN=C=S`, in assay [1], the IC50 came to 5.1 µM.

Consider `COc1ccc(CN=C=S)cc1`, for which the values for the IC50 in assay [2] and in assay [1] were 0.7 µM and 3.9 µM, respectively.

On to `CC(N=C=S)c1ccccc1` (stereo unspecified) [1-PHENYLETHYL ISOTHIOCYANATE], for which the IC50 was determined as 1 µM in assay [2] and 2.8 µM in assay [1].

`C=CCN=C=S` [ALLYL ISOTHIOCYANATE]: the IC50 in assay [2] stood at 1.1 µM; in assay [1], 0.25 µM.

In assay [1], `N#CSCc1ccccc1` [BENZYL THIOCYANATE] registered an IC50 greater than 100 µM.

As for `O=C=NCCc1ccccc1` [PHENETHYL ISOCYANATE], the IC50 in assay [1] was greater than 100 µM.

On to `S=C=NCCCCc1ccccc1` [PHENYLBUTYL ISOTHIOCYANATE], for which, in assay [1], the IC50 amounted to 1.9 µM.

As for `S=C=NCCCCCCc1ccccc1` [PHENYLHEXYL ISOTHIOCYANATE], the IC50 in assay [1] is 4.2 µM.

`S=C=Nc1ccccc1` [PHENYLISOTHIOCYANATE] gave a half-maximal inhibitory concentration (IC50) in assay [1] of 11 µM.

On to `C[S+]([O-])CCCCN=C=S` (stereo unspecified) [SULFORAPHANE], for which the IC50 is 11 µM in assay [2] and 2.2 µM in assay [1].

These data come from ChEMBL document CHEMBL3407419, “Multiple binding modes of isothiocyanates that inhibit macrophage migration inhibitory factor” (Eur J Med Chem, 2015).
